Reference: patent publication US10231969B2, “Anti-neoplastic combinations and dosing regimens using CDK4/6 inhibitor compounds to treat RB-positive tumors” (G1 Therapeutics, Inc., priority 2014, dated 2019)
Read-outs that look alike come from different tables or passages of the source. One block for each compound: values may come before it.

Assays:
[1] = biological target: CDK4/CyclinD1 (Homo sapiens, UniProt P11802); test: CDK4/cyclinD1 kinase assay (Nanosyn, Caliper microfluidic); type: biochemical; settings: read-out: CDK4/CycD1 IC50
Description: (§1) Selected compounds disclosed herein were tested in CDK4/cyclinD1, CDK2/CycA and CDK2/cyclinE kinase assays by Nanosyn (Santa Clara, Calif.) to determine their inhibitory effect on these CDKs. The assays were performed using microfluidic kinase detection technology (Caliper Assay Platform). The compounds were tested in 12-point dose-response format in singlicate at Km for ATP. Phosphoacceptor substrate peptide concentration used was 1 μM for all assays and Staurosporine was used as the reference compound for all assays. Specifics of each assay are as described below:
CDK4/CyclinD1: Enzyme concentration: 1 nM; ATP concentration: 200 μM; Incubation time: 10 hr.

[2] = tested on: bone marrow proliferating cells; test: EdU incorporation in hematopoietic cells after i.p. dose; type: in vivo, C57BL/6 female mice; settings: single i.p. dose 50 mg/kg or 100 mg/kg
Description: At the designated time: 30 min, 1 h, 2 h, 4 h, 6 h, 8 h, 12 h, 18 h, 24 h or 48 h, mice received an injection of 5′-ethynyl-2′-deoxyuridine (EdU). Two hours post EdU injection, mice were sacrificed. As illustrated in FIGS. 12-19, cell lines were isolated and incorporation of EdU was measured. Hematopoietic cell lineages were identified using known cell lineage markers. (See, for example, Challen, et al. “Mouse Hematopoietic Stem Cell Identification and Analysis”, Cytometry A. (2009) 75(1): 14-24).

[3] = tested on: Rb phosphorylation (Ser780, Ser807/811) in WM2664; test: Rb phosphorylation western blot, WM2664; type: cell-based; settings: WM2664, 300 nM, by 16 hours post exposure
Description: (§2) The CDK4/6-cyclin D complex is essential for progression from G1 to the S-phase of the DNA cell cycle. This complex phosphorylates the retinoblastoma tumor suppressor protein (Rb). […] Samples were lysed and protein was assayed by western blot analysis. Rb phosphorylation was measured at two sites targeted by the CDK4/6-cyclin D complex, Ser780 and Ser807/811 using species specific antibodies.

[4] = tested on: 456 (395 non-mutant) kinases; test: DiscoveRx KINOMEscan profiling; type: binding; settings: 1000 nM
[5] = tested on: Rb phosphorylation (Ser780, Ser807/811) in tHS68; test: Rb phosphorylation western blot, tHS68; type: cell-based; settings: tHS68, 300 nM, by 16 hours post exposure
Description: as §2

[6] = tested on: tHS68 (CDK4/6-dependent; Rb-positive); test: Cell cycle arrest, propidium iodide flow cytometry, tHS68; type: cell-based; settings: tHS68, 24 hours, highest concentration shown (28% at baseline)
Description: To test the ability of CDK4/6 inhibitors to induce a clean G1-arrest in Rb-positive cells, a cell based screening method was used consisting of two CDK4/6-dependent cell lines (tHS68 and WM2664; Rb-positive) and one CDK4/6-independent (A2058; Rb-negative) cell line. […] At the conclusion of the experiment, cells were harvested, fixed, and stained with propidium iodide (a DNA intercalator), which fluoresces strongly red (emission maximum 637 nm) when excited by 488 nm light. Samples were run on Dako Cyan flow cytometer and >10,000 events were collected for each sample. Data were analyzed using FlowJo 2.2 software developed by TreeStar, Inc.

[7] = tested on: HS68 cells (human skin fibroblast cell line (Rb-positive)); test: G1 arrest (cellular G1 and S-phase) assay; type: cell-based
Description: The fraction of cells in G0-G1 DNA cell cycle versus the fraction in S-phase DNA cell cycle was determined using FlowJo 7.2.2 analysis.
The compounds listed in Table 1 were tested for their ability to arrest HS68 cells at the G1 phase of the cell cycle.

[8] = biological target: T1, CDK2/CyclinE (Homo sapiens, UniProt P24941); test: CDK2/cyclinE kinase assay (Nanosyn, Caliper microfluidic); type: biochemical; settings: Table 2; for IC50: ATP 100 μM, read-out: CDK2/CycE IC50
T1 construct: Nanosyn (Santa Clara, Calif.) ran the assay as a service
Description: as §1, with “assays.” for “assays. Specifics of each assay are as described below:”

[9] = biological target: T2, CDK2/CyclinA (Homo sapiens, UniProt P24941); test: CDK2/CycA kinase assay (Nanosyn, Caliper microfluidic); type: biochemical; settings: Table 2; for IC50: ATP 50 μM
T2 construct: Nanosyn (Santa Clara, Calif.) ran the assay as a service
Description: as §1
CDK2/CyclinA: Enzyme concentration: 0.2 nM; ATP concentration: 50 μM; Incubation time: 3 hr.

[10] = tested on: ER+, HER2− locally advanced or metastatic breast cancer; settings: post-menopausal women, at time of final PFS analysis; cited from earlier work
[11] = Peripheral blood CBC on day 14 in MCF7 implant model; type: in vivo, Immunodeficient mice; settings: Day 14, 100 mg/kg PO QD
Description: Specific cell counts analyzed were white blood cells (WBC: FIG. 21A), lymphocytes (FIG. 21B), neutrophils (FIG. 21C), monocytes (FIG. 21D), platelets (FIG. 21E), and red blood cells (FIG. 21F).

[12] = tested on: ZR-75-1 (breast ductal carcinoma—Rb-positive); test: Cellular proliferation assay (CellTiter-Glo), ZR-75-1; type: cell-based; settings: Homo sapiens, ZR-75-1, 144 h, six days, read-out: ZR75-1 Cellular EC50
Description: (§3) Cellular proliferation assays were further conducted using the following cancer cell lines: MCF7 (breast adenocarcinoma—Rb-positive), ZR-75-1 (breast ductal carcinoma—Rb-positive), H69 (human small cell lung cancer—Rb-negative) cells, or A2058 (human metastatic melanoma cells—Rb-negative). These cells were seeded in Costar (Tewksbury, Mass.) 3093 96 well tissue culture treated white walled/clear bottom plates. Cells were treated with the compounds of Table 1 as nine point dose response dilution series from 10 uM to 1 nM. Cells were exposed to compounds and then cell viability was determined after either four (H69) or six (MCF7, ZR75-1, A2058) days as indicated using the CellTiter-Glo® luminescent cell viability assay (CTG; Promega, Madison, Wis., United States of America) following the manufacturer's recommendations. Plates were read on BioTek (Winooski, Vt.) Syngergy2 multi-mode plate reader. The Relative Light Units (RLU) were plotted as a result of variable molar concentration and data was analyzed using Graphpad (LaJolla, Calif.) Prism 5 statistical software to determine the EC50 for each compound.

[13] = tested on: MCF7 (breast adenocarcinoma—Rb-positive); test: Cellular proliferation assay (CellTiter-Glo), MCF7; type: cell-based; settings: Homo sapiens, MCF7, 144 h, six days
Description: as §3

[14] = tested on: H69 (human small cell lung cancer—Rb-negative) cells; test: Cellular proliferation assay (CellTiter-Glo), H69; type: cell-based; settings: NCI-H69, 96 h, four days
Description: as §3

[15] = tested on: A2058 (human metastatic melanoma cells—Rb-negative); test: Cellular proliferation assay (CellTiter-Glo), A2058; type: cell-based; settings: A2058, 144 h, six days
Description: as §3

Chain of CDK4/CyclinD1 (P11802 whole entry): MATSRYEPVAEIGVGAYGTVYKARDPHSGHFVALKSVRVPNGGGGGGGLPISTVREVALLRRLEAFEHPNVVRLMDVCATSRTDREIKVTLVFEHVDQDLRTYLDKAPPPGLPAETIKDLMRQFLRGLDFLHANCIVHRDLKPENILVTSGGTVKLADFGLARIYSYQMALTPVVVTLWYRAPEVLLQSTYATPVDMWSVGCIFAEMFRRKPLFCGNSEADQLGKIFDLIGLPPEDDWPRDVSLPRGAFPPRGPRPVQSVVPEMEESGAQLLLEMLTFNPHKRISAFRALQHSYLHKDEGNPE
Chain of CDK4/CyclinD1 (P24385 whole entry partner): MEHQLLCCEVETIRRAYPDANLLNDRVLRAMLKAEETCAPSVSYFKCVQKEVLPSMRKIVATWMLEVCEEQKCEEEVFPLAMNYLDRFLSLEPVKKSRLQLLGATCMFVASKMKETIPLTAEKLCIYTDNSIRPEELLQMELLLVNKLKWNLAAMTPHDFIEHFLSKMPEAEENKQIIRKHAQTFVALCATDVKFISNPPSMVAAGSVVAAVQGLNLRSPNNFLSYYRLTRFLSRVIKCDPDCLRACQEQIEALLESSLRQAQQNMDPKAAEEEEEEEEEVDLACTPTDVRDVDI

IC50 ([1]; Table 2, ATP at Km (200 μM)): 2.3 nM
Structure (SMILES): C[C@H]1CN(c2ccc(Nc3ncc4cc5n(c4n3)C3(CCCCC3)CNC5=O)nc2)CCN1CCC(C)(C)C [M]

IC50 ([1]; Table 2, ATP at Km (200 μM)): 1.7 nM
Structure (SMILES): C[C@@H](O)CN1CCN(c2ccc(Nc3ncc4cc5n(c4n3)C3(CCCCC3)CNC5=O)nc2)CC1 [S]

IC50 [8]: 16500 nM
IC50 ([1]; Table 2, ATP at Km (200 μM)): 0.8 nM
IC50 [9]: 2640 nM
Structure (SMILES): CC1CN(c2ccc(Nc3ncc4cc5n(c4n3)C3(CCCC3)CNC5=O)nc2)CCN1CCC(C)(C)C (stereo not drawn) [PPP]

EC50 [12]: 229 nM
EC50 [13]: 120 nM
IC50 [8]: 3980 nM
EC50 [14]: > 3000 nM
IC50 ([1]; Table 2, ATP at Km (200 μM)): 9 nM
EC50 [15]: > 3000 nM
IC50 [9]: 570 nM
Structure (SMILES): CC1CN(c2ccc(Nc3ncc4cc5n(c4n3)C3(CCCCC3)CNC5=O)nc2)C[C@@H](C)N1CC1CC1 (stereo partly drawn) [OO]
EC50 [7]: 95 nM

IC50 ([1]; Table 2, ATP at Km (200 μM)): 18 nM
Structure (SMILES): CC(C)[C@H]1CNC(=O)c2cc3cnc(Nc4ccc(N5CCNCC5)cn4)nc3n21 [UUU]

IC50 ([1]; Table 2, ATP at Km (200 μM)): 3.2 nM
Structure (SMILES): CCOCCN1CCN(c2ccc(Nc3ncc4cc5n(c4n3)C3(CCCC3)CNC5=O)nc2)CC1 [MMM]

Continued, compound first:

Structure (SMILES): CN1CCN(c2ccc(Nc3ncc4cc5n(c4n3)C3(CCCCC3)CNC5=O)nc2)CC1 [Compound T]
EdU incorporation, bone marrow [2]: dose and time dependent reduction and recovery of proliferating cells
Rb phosphorylation [3]: blocks Rb phosphorylation
number of 395 non-mutant kinases inhibited ([4]; inhibitory threshold of 65%): 92
share of 395 non-mutant kinases inhibited ([4]; inhibitory threshold of 65%): 23.3%
number of 395 non-mutant kinases inhibited ([4]; inhibitory threshold of 90%): 31
share of 395 non-mutant kinases inhibited ([4]; inhibitory threshold of 90%): 7.8%
number of 395 non-mutant kinases inhibited ([4]; inhibitory threshold of 99%): 6
share of 395 non-mutant kinases inhibited ([4]; inhibitory threshold of 99%): 1.5%
Rb phosphorylation [5]: blocks Rb phosphorylation
cells in S-phase [6]: 6%

Structure (SMILES): CCN1[C@H](C)CN(c2ccc(Nc3ncc4cc5n(c4n3)C3(CCCCC3)CNC5=O)nc2)C[C@@H]1C [FF]
IC50 ([1]; Table 2, ATP at Km (200 μM)): 1.2 nM

Structure (SMILES): O=C1NCC2(CCCC2)n2c1cc1cnc(Nc3ccc(N4CCC(N5CCOCC5)CC4)cn3)nc12 [WW]
EC50 [7]: 400 nM

Structure (SMILES): CC(C)N1CCN(c2ccc(Nc3ncc4cc5n(c4n3)C3(CCCCC3)CNC5=O)nc2)C[C@H]1C [L]
IC50 ([1]; Table 2, ATP at Km (200 μM)): 5.7 nM

Structure (SMILES): CCN(CC)C1CCN(c2ccc(Nc3ncc4cc5n(c4n3)C3(CCCCC3)CNC5=O)nc2)C1 (stereo not drawn) [QQ]
EC50 [7]: 120 nM

Structure (SMILES): N#Cc1ccc(C(c2ccc(C#N)cc2)n2cncn2)cc1 [letrozole]
median OS [10]: 33.3 months

Structure (SMILES): CC(C)N1CCN(c2ccc(Nc3ncc4cc5n(c4n3)C3(CCCCC3)CNC5=O)nc2)CC1 [Compound GG]
IC50 ([1]; Table 3): 1.06 nM
IC50 [1]: 1 nM
lymphocyte count [11]: reduced cell counts
neutrophil count [11]: reduced cell counts
platelet count [11]: reduced cell counts
red blood cell count [11]: reduced cell counts
white blood cell count [11]: reduced cell counts

Structure (SMILES): CN1CCN(C(=O)c2ccc(Cc3ncc4cc5n(c4n3)C3(CCCC3)CNC5=O)nc2)CC1 [BBB]
EC50 [13]: 123 nM
EC50 [7]: 230 nM
IC50 [8]: 187 nM
Fold Selectivity (CDK2/CycE/CDK4) ([8]; ratio of IC50s): 68
EC50 [14]: > 3000 nM
IC50 ([1]; Table 2, ATP at Km (200 μM)): 2.8 nM
EC50 [15]: > 3000 nM
IC50 [9]: 85 nM
Fold Selectivity (CDK2/CycA/CDK4) ([9]; ratio of IC50s): 31

Structure (SMILES): C[C@@H]1CN(c2ccc(Nc3ncc4cc5n(c4n3)C3(CCCCC3)CNC5=O)nc2)CCN1C[C@@H](C)O [J]
IC50 ([1]; Table 2, ATP at Km (200 μM)): 0.7 nM

Structure (SMILES): CCN(CC)C1CCN(c2ccc(Nc3ncc4cc5n(c4n3)C3(CCCC3)CNC5=O)nc2)C1 (stereo not drawn) [UU]
EC50 [7]: 300 nM
